{"source": "patent US20250115583A1", "about": "“BICYCLIC INDAZOLE GLUCOCORTICOID RECEPTOR ANTAGONISTS” (Corcept Therapeutics Incorporated, priority 2021, published 2025)", "data": [{"biological_target": "glucocorticoid receptor (Homo sapiens (Human), UniProt P04150)", "sequence (P04150 whole entry)": "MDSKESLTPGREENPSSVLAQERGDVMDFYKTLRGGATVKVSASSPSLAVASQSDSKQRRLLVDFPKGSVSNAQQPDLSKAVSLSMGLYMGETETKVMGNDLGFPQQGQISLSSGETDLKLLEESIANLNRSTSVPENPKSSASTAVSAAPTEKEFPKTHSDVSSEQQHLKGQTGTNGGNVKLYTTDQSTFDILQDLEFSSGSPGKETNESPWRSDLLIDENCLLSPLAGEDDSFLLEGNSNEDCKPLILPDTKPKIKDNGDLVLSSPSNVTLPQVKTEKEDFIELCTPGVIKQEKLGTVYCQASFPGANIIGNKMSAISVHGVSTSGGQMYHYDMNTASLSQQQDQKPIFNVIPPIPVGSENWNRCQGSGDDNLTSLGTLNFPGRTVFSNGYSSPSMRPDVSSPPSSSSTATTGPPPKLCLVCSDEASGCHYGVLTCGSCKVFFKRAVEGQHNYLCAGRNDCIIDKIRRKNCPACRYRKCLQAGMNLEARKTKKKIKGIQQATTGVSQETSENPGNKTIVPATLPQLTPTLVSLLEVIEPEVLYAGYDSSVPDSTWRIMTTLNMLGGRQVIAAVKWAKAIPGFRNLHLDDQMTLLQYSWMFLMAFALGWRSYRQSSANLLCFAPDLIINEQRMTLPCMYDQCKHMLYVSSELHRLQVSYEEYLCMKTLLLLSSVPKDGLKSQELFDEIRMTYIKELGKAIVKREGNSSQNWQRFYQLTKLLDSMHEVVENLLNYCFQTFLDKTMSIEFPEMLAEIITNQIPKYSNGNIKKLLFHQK", "assay": "HepG2 TAT assay: inhibition of dexamethasone-induced tyrosine aminotransferase (TAT) activity", "assay_type": "cell-based", "details": "HepG2 cells, challenge of 100 nM dexamethasone, 18-24 hr; IC50 converted to Ki by Cheng and Prusoff equation", "outline": "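Cells lysed 15 min at 4 °C; TAT enzyme reaction 2 h at 37 °C, stopped with KOH, 30 min further at 37 °C. Inhibition fitted to 4-parameter logistic.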", "units": {"Ki": "nM"}, "values": [{"compound": "Cc1cc2c(cnn2-c2ccc(F)cc2)cc1[C@@]12CN(S(=O)(=O)C(C)C)C[C@@H]1[C@H]2c1ccccc1", "note": "[Example 101]", "Ki": 41}, {"compound": "Cc1cc2c(cnn2-c2ccc(F)cc2)cc1[C@@]12CN(S(=O)(=O)N3CCCCC3)C[C@@H]1[C@H]2c1ccccc1", "note": "[Example 102]", "Ki": 26}, {"compound": "Cc1cc2c(cnn2-c2ccc(F)cc2)cc1[C@@]12CN(S(=O)(=O)N3CC(C#N)C3)C[C@@H]1[C@H]2c1ccccc1", "note": "[Example 103]", "Ki": 27}, {"compound": "Cc1cc2c(cnn2-c2ccc(F)cc2)cc1[C@@]12CN(S(=O)(=O)CC(C)C)C[C@@H]1[C@H]2c1ccccc1", "note": "[Example 104]", "Ki": 30}, {"compound": "Cc1cc2c(cnn2-c2ccc(F)cc2)cc1[C@@]12CN(S(=O)(=O)N3CCC3)C[C@@H]1[C@H]2c1ccccc1", "note": "[Example 105]", "Ki": 14}, {"compound": "CNS(=O)(=O)N1C[C@@H]2[C@@H](c3ccccc3)[C@]2(c2cc3cnn(-c4ccc(F)cc4)c3cc2C)C1", "note": "[Example 106]", "Ki": 55}, {"compound": "Cc1cc2c(cnn2-c2ccc(F)cc2)cc1[C@@]12CN(S(=O)(=O)CC3CCOCC3)C[C@@H]1[C@H]2c1ccccc1", "note": "[Example 107]", "Ki": 32}, {"compound": "Cc1cc2c(cnn2-c2ccc(F)cc2)cc1[C@@]12CN(S(=O)(=O)N(C)C)C[C@@H]1[C@H]2c1ccccc1", "note": "[Example 108]", "Ki": 16}, {"compound": "COC1CCN(S(=O)(=O)N2C[C@@H]3[C@@H](c4ccccc4)[C@]3(c3cc4cnn(-c5ccc(F)cc5)c4cc3C)C2)CC1", "note": "[Example 109]", "Ki": 13}, {"compound": "Cc1cc2c(cnn2-c2ccc(F)cc2)cc1C12CN(S(=O)(=O)c3cnn(C)n3)CC1C2c1ncco1", "note": "(stereo not shown) [Example 133, 2-(1-(1-(4-fluorophenyl)-6-methyl-1H-indazol-5-yl)-3-((2-methyl-2H-1,2,3-triazol-4-yl)sulfonyl)-3-azabicyclo[3.1.0]hexan-6-yl)oxazole]", "Ki": 260}, {"compound": "Cc1cc2c(cnn2-c2ccc(F)cc2)cc1[C@@]12CN(S(=O)(=O)c3cnn(C)n3)C[C@@H]1[C@H]2c1nc2ccccc2o1", "note": "[Example 134, 2-(1-(1-(4-fluorophenyl)-6-methyl-1H-indazol-5-yl)-3-((2-methyl-2H-1,2,3-triazol-4-yl)sulfonyl)-3-azabicyclo[3.1.0]hexan-6-yl)benzo[d]oxazole]", "Ki": 55}, {"compound": "Cc1cc2c(cnn2-c2ccc(F)cc2)cc1[C@]12CN(C(=O)c3cnnn3C)C[C@H]1[C@@H]2c1ccccc1", "note": "[Example 144, (1-(1-(4-fluorophenyl)-6-methyl-1H-indazol-5-yl)-6-phenyl-3-azabicyclo[3.1.0]hexan-3-yl)(1-methyl-1H-l,2,3-triazol-5-yl)methanone]", "Ki": 120}, {"compound": "Cc1cc2c(cnn2-c2ccc(F)cc2)cc1[C@]12CN(C(=O)c3cn(C)nn3)C[C@H]1[C@@H]2c1ccccc1", "note": "[Example 147, (1-(1-(4-fluorophenyl)-6-methyl-1H-indazol-5-yl)-6-phenyl-3-azabicyclo[3.1.0]hexan-3-yl)(1-methyl-1H-l,2,3-triazol-4-yl)methanone]", "Ki": 37}]}]}
